Measured values: PubChem BioAssay (NCI)
“And” between values parts separate entries of the source, which are not always exact repeats. Equal entries are not always repeated.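 Dose response: 5 concentrations. Exposure: 48 h. Format: 96-well plates. Endpoint: linear interpolation; highest concentration if not reached. GI50 = concentration required for 50% inhibition of growth. At the TGI there is no net growth.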

Key:
Assay in all cases: NCI anticancer screen, dose series, 48 h
A498 renal = tested on: A498 renal
HCT-15 colon = tested on: HCT-15 colon
HT29 colon = tested on: HT29 colon
KM12 colon = tested on: KM12 colon
MDA-MB-435 = tested on: MDA-MB-435
RXF 393 renal = tested on: RXF 393 renal
SF-539 CNS = tested on: SF-539 CNS
SR leukemia = tested on: SR leukemia
SW-620 colon = tested on: SW-620 colon
HCC-2998 colon = tested on: HCC-2998 colon

| Compound | TGI (A498 renal) | TGI (HCT-15 colon) [µM] | TGI (HT29 colon) [µM] | TGI (KM12 colon) [µM] | TGI (MDA-MB-435) [µM] | TGI (RXF 393 renal) | TGI (SF-539 CNS) [µM] | TGI (SR leukemia) [µM] | TGI (SW-620 colon) [µM] | GI50 (A498 renal) | GI50 (HCC-2998 colon) | TGI (HCC-2998 colon) [µM] | GI50 (HCT-15 colon) | GI50 (HT29 colon) | GI50 (KM12 colon) | GI50 (MDA-MB-435) | GI50 (RXF 393 renal) | GI50 (SF-539 CNS) [µM] | GI50 (SR leukemia) | GI50 (SW-620 colon) |
| --- | --- | --- | --- | --- | --- | --- | --- | --- | --- | --- | --- | --- | --- | --- | --- | --- | --- | --- | --- | --- |
| Nc1[nH]c(=S)[nH]c(=O)c1N=Nc1c(Br)cc(S(N)(=O)=O)cc1Br | > 100 µM | > 100 | > 100 | > 100 | > 100 | > 100 µM | > 100 | > 100 | > 100 | – | – | – | – | – | – | – | – | – | – | – |
| COc1cccc(/C=C/C(=O)c2cc3c(N)c(C(=O)Nc4ccccc4)sc3nc2C)c1 | 4.41 µM | 3.37 | 3.42 | 2.23 | 2.86 | 1.71 µM | 1.84 | 6.46 | 3.09 | 1.18 µM | 0.901 µM | 1.66 | 1.16 µM | 1.21 µM | 0.988 µM | 0.989 µM | 0.837 µM | 0.957 | 1.28 µM | 1.12 µM |
| c1ccc2c(c1)CCCc1nnc3nc4ccccc4n3c1-2 | > 100 µM | > 100 | 82.5 | 27.6 | > 100 | 32.7 µM | 18.4 | 25.7 | 24.2 | 16.6 µM | 6.45 µM | 24.1 | 3.27 µM | 10.1 µM | 5.37 µM | 7.32 µM | 3.08 µM | 3.57 | 3.16 µM | 5.06 µM |
| COC1C[C@H](O[C@@H]2C[C@H](O[C@@H]3C[C@H](O[C@@H]4C(=O)c5c(cc6cc(O[C@H]7C[C@@H](O[C@H]8C[C@@H](O)[C@H](O)C(C)O8)[C@H](O)C(C)O7)c(C)c(O)c6c5O)C[C@H]4C(OC)C(=O)[C@@H](O)[C@@H](C)O)OC(C)[C@H]3O)OC(C)[C@@H]2O)OC(C)[C@@H]1O (stereo partly drawn) | 0.108 µM | > 32.5 | > 32.5 | – | 0.45 | 0.525 µM | 0.316 | > 32.5 | > 32.5 | 0.0395 µM | 0.0961 µM | 0.615 | 2.19 µM | 0.0974 µM | – | 0.0949 µM | 0.094 µM | 0.0736 | 0.0406 µM | 0.127 µM |
| C[C@H]1O[C@@H](O[C@H]2[C@@H](O)C[C@H](O[C@H]3[C@@H](O)C[C@H](O[C@H]4CC[C@]5(C)C6CC[C@]7(C)[C@@H](C8=CC(=O)OC8)CC[C@]7(O)C6CC[C@@H]5C4)O[C@@H]3C)O[C@@H]2C)C[C@H](O)[C@@H]1O (stereo partly drawn) | 0.262 µM | 0.0982 | 0.0653 | 0.103 | 0.0666 | 0.0439 µM | 0.0373 | 0.0512 | 0.0678 | 0.0351 µM | 0.0361 µM | 0.174 | 0.0257 µM | 0.0193 µM | 0.0247 µM | 0.017 µM | 0.0142 µM | 0.0141 | – | 0.0178 µM |
| CN(N=O)N1C(=O)SCC(c2ccccc2)(c2ccccc2)C1=O | > 100 µM | > 100 | > 100 | > 100 | 73.3 | 59.2 µM | 65.5 | > 100 | > 100 | – | – | > 100 | – | – | – | – | – | – | – | – |
| Cc1cc(S(=O)(=O)Nc2nc3ccccc3s2)c(SCc2ccccc2)cc1Cl | 28.6 µM | 30.8 | – | 61.9 | 31.7 | 49.7 µM | 32.7 | 58 | 37.6 | 12.9 µM | 13.8 µM | 26.7 | 15.2 µM | – | 18.8 µM | 15.7 µM | 23.8 µM | 16.5 | 18.3 µM | 18.8 µM |
| Nc1nc(N)c2c(n1)NC(c1ccc(Cl)cc1)C1CCc3ccccc3C1=N2 (stereo not drawn) | 19 µM | 18.5 | 18 | 20.8 | 19.6 | 19.1 µM | 19.6 | 5.01 | 22.6 | 5.34 µM | 12.2 µM | 24.7 | 4.16 µM | 4.31 µM | 8.48 µM | 4.72 µM | 4.68 µM | 6.17 | 1.73 µM | 8.23 µM |
| Cc1c(-c2c(F)cc(C(N)=O)c3[nH]c4c(c23)CC[C@H](C(C)(C)O)C4)cccc1-n1c(=O)c2cccc(F)c2n(C)c1=O | 10.2 µM | > 100 | > 100 | > 100 | > 100 | 5.31 µM | 33.4 | 5.81 | > 100 | 2.8 µM | 2.81 µM | 51.5 | 2.7 µM | 0.864 µM | 0.399 µM | 3.81 µM | 1.61 µM | 4.78 | 1.88 µM | 2.44 µM |
| Nc1cc2c3ccccc3ccc2c2ccccc12 | > 100 µM | > 100 | > 100 | > 100 | > 100 | > 100 µM | > 100 | > 100 | > 100 | > 100 µM | > 100 µM | > 100 | 3.92 µM | > 100 µM | > 100 µM | > 56.1 µM | > 100 µM | > 51.2 | > 100 µM | > 100 µM |
| Cc1cc(C(=O)NOCCO)c(Nc2ccc(I)cc2F)n(C)c1=O | 0.0286 µM and 0.0435 µM | > 100 | > 100 | > 100 | > 100 | > 10 µM and 92.3 µM | > 100 | > 100 | > 100 | 0.00323 µM and 0.0103 µM | 0.00297 µM and < 0.01 µM | > 6.94 | > 3.01 µM and 2.64 µM | 0.00193 µM and < 0.01 µM | 0.0263 µM and < 0.0161 µM | 0.00458 µM and < 0.01 µM | 0.0915 µM and 0.199 µM | > 38.5 | > 10 µM and 29.5 µM | 0.00252 µM and < 0.01 µM |
| COc1cc(-c2cc(-c3ccc(Nc4nc(Nc5ccc(Cl)cc5)nc(Nc5ccc(Cl)cc5)n4)cc3)no2)cc(OC)c1OC | > 100 µM | > 100 | > 100 | > 100 | > 100 | 7.08 µM | > 100 | 21.6 | > 100 | 2.71 µM | 13.1 µM | 91.3 | 18.9 µM | 16.9 µM | 14.2 µM | 7.15 µM | 0.816 µM | 9.05 | 1.92 µM | 19.9 µM |
| S=C1NC(c2ccccc2)NC(c2ccccc2)S1 (stereo not drawn) | > 100 µM | > 100 | > 100 | > 100 | > 100 | > 100 µM | > 100 | > 100 | > 100 | – | – | – | – | – | – | – | – | – | – | – |
